Read-outs that look alike come from different tables or passages of the source.
Tests used:
[1] = tested on: wild-type HCV replicon in Huh7 cells; assay: Cell-based drug susceptibility (replicon) assay, wild-type; settings: Hepatitis C virus, read-out: Replicon EC50 (nM) WT
Procedure, shortened: (§1)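 Con1 (genotype 1b) luciferase reporter replicon carrying H77 (genotype 1a) NS3, with variants made by site-directed mutagenesis, was electroporated into Huh7 cells. Cells were exposed to increasing protease inhibitor concentrations, and replication was read as luciferase activity (relative light units) 96 h after electroporation.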

[2] = target: T1, wild-type GT1a NS3/4A protease (UniProt P27958); type: biochemical, Hepatitis C virus
T1 construct: Ki WT; other: wild-type HCV NS3/4A protease
Procedure, shortened: (§2)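 NS3/4A protease (2 nM; wild-type GT1a or D168A) pre-incubated 1 h at room temperature with increasing inhibitor in 50 mM Tris pH 7.5, 5% glycerol, 10 mM DTT, 0.6 mM LDAO, 4% DMSO. Ki from three independent data sets per construct; ΔG=RTlnKi.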

[3] = target: GT1a D168A NS3/4A protease; type: biochemical, Hepatitis C virus; settings: for Ki (Fold Change) D168A: Table 6, with respect to GT1a wild-type
Procedure, shortened: as §2

[4] = target: T2, GT1a D168A NS3/4A protease (UniProt P27958, D1194A, species not given); type: biochemical, Hepatitis C virus
T2 construct: rows headed: Ki (nM) D168A; Ki D168A; other: D168A variant
Procedure, shortened: as §2

[5] = tested on: HCV replicon R155K variant in Huh7 cells; assay: microbe, parasite or virus in culture; type: cell-based, Hepatitis C virus; settings: for EC50: Hepatitis C virus
Procedure, shortened: as §1

[6] = tested on: HCV replicon D168A variant in Huh7 cells; assay: microbe, parasite or virus in culture; type: cell-based, Hepatitis C virus; settings: for EC50: Hepatitis C virus
Procedure, shortened: as §1

[7] = tested on: HCV replicon A156T variant in Huh7 cells; assay: microbe, parasite or virus in culture; type: cell-based, Hepatitis C virus; settings: for EC50: Hepatitis C virus
Procedure, shortened: as §1

[8] = tested on: drug resistant HCV variants (R155K, A156T, D168A, D168V); assay: Replicon antiviral assays, collective statements on drug resistant variants; type: cell-based, Hepatitis C virus; settings: range over all variants tested
Procedure: Mutations (R155K, A516T, D168A and D168V) were constructed by site-directed mutagenesis using a Con1 (genotype 1b) luciferase reporter replicon containing the H77 (genotype 1a) NS3 sequence.
Replicon RNA of each protease variant was introduced into Huh7 cells by electroporation. Replication was then assessed in the presence of increasing concentrations of protease inhibitors by measuring luciferase activity (relative light units) 96 h after electroporation.
Mutations (R155K, D168A and A156T) were constructed by site-directed mutagenesis using a Con1 (genotype 1b) luciferase reporter replicon containing the H77 (genotype 1a) NS3 sequence.^6 Replicon RNA of each protease variant was introduced into Huh7 cells by electroporation. Replication was then assessed in the presence of increasing concentrations of protease inhibitors by measuring luciferase activity (relative light units) 96 h after electroporation.

[9] = target: GT1a R155K NS3/4A protease; type: biochemical, Hepatitis C virus; settings: fold change in Ki, R155K relative to WT
Procedure, shortened: (§3)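 2 nM NS3/4A protease (GT1a, R155K and D168A constructs) pre-incubated 1 h at room temperature with increasing inhibitor concentrations in 50 mM Tris pH 7.5, 5% glycerol, 10 mM DTT, 0.6 mM LDAO, 4% DMSO. Three independent data sets per inhibitor and construct; ΔG of binding derived from Ki as ΔG=RTlnKi.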

[10] = target: GT1a R155K NS3/4A protease (UniProt P27958, R1181K, species not given); type: biochemical, Hepatitis C virus
Procedure, shortened: as §3

[11] = tested on: HCV replicon D168V variant in Huh7 cells; assay: microbe, parasite or virus in culture; type: cell-based, Hepatitis C virus; settings: for EC50: Hepatitis C virus
Procedure, shortened: as §1

[12] = target: T3, GT1a D168A NS3/4A protease (UniProt P27958, C1185S/D1194A, species not given); type: biochemical, Hepatitis C virus; settings: read-out: Ki (nM) GT1a D168A NS3/4A Protease
T3 construct: Ki (nM) GT1a D168A NS3/4A Protease
Procedure, shortened: as §2

[13] = target: T4, wild-type GT1a NS3/4A protease (UniProt P27958, C1185S, species not given); type: biochemical, Hepatitis C virus; settings: read-out: Ki (nM) GT1a WT NS3/4A Protease
T4 construct: Ki (nM) GT1a WT NS3/4A Protease
Procedure, shortened: as §2

[14] = target: T5, GT1a D168A NS3/4A protease (UniProt P27958, C1185S/D1194A, species not given); type: biochemical, Hepatitis C virus; settings: read-out: Ki (nM) D168A; Table 6; P4/P4-P5 modified macrocycles
T5 construct: P4/P4-P5 modified macrocycles
Procedure, shortened: as §2

[15] = target: T6, wild-type GT1a NS3/4A protease (UniProt P27958, C1185S, species not given); type: biochemical, Hepatitis C virus; settings: read-out: Ki (nM) GT1a WT; Table 6; P4/P4-P5 modified macrocycles
T6 construct: P4/P4-P5 modified macrocycles
Procedure, shortened: as §2

GT3a NS3/4A protease = target: T7, GT3a NS3/4A protease (Hepatitis C virus genotype 3a, UniProt Q81495); assay: biochemical
T7 construct: drug-resistant variant D168A, and GT3a NS3/4A protease; made in house; host or cells: Escherichia coli BL21(DE3)
T7 sequence (Q81495 1033-1214): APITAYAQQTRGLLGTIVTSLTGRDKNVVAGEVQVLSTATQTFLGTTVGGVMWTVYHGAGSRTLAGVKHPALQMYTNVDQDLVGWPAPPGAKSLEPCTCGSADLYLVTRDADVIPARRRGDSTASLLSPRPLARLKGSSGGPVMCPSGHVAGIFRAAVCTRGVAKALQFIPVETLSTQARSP
Procedure, shortened: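 Protease at 2 nM pre-incubated 1 h at room temperature with increasing inhibitor concentrations in 50 mM Tris, 5% glycerol, 10 mM DTT, 0.6 mM LDAO, 4% DMSO. Three independent data sets per inhibitor and construct.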

[16] = rcm bond; 15-membered ring; Zhan 1b; 1,2-DCE; 6.3 mM; 70.0 °C
[17] = Table 4, relative to WT replicon

## C=C[C@@H]1C[C@]1(NC(=O)[C@@H]1C[C@@H](Oc2nc3cc(OC)ccc3nc2C)CN1C(=O)[C@@H](NC(=O)OC1CCCC1)C(C)(C)C)C(=O)NS(=O)(=O)C1(C)CC1 [Compound 12b, Cyclopentyl ((S)-1-((2S,4R)-4-((7-methoxy-3-methylquinoxalin-2-yl)oxy)-2-(((1R,2S)-1-(((1-methylcyclopropyl)sulfonyl)carbamoyl)-2-vinylcyclopropyl)carbamoyl)pyrrolidin-1-yl)-3,3-dimethyl-1-oxobutan-2-yl)carbamate]
[1]; Huh-7, Table 9
  EC50: 4.5 nM
[2]; read-out: Ki (nM) WT, Table 8, linear inhibitors
  Ki: 7.1 ± 1.1 nM
[2]; read-out: Ki WT, wild-type HCV NS3/4A protease
  Ki: 7.1 ± 1.1 nM
[3]; fold change in Ki, D168A relative to WT
  Ki D168A (fold change): 20
[4]; read-out: Ki (nM) D168A, Table 8, linear inhibitors
  Ki: 140 ± 13 nM
[4]; read-out: Ki D168A, D168A variant
  Ki: 140 ± 13 nM
[5]; Huh-7, read-out: Replicon EC50 (nM) R155K, Table 9
  EC50: 28 nM
[5]; Table 9, relative to WT
  Replicon EC50 (Fold change) R155K: (6.2) fold
[6]; Huh-7, read-out: Replicon EC50 (nM) D168A, Table 9
  EC50: 45 nM
[6]; Table 9, relative to WT
  Replicon EC50 (Fold change) D168A: (10) fold
[7]; Huh-7, read-out: Replicon EC50 (nM) A156T, Table 9
  EC50: 87 nM
[7]; Table 9, relative to WT
  Replicon EC50 (Fold change) A156T: (19) fold
[8]
  fold loss in replicon potency against drug resistant variants compared to WT: 5-20 fold
[9]
  Ki R155K (fold change): 1.4
[10]; read-out: Ki (nM) R155K, Table 8, linear inhibitors
  Ki: 10 ± 1.3 nM
[10]; read-out: Ki R155K, R155K variant
  Ki: 10 ± 1.3 nM
[11]; Huh-7, read-out: Replicon EC50 (nM) D168V, Table 9
  EC50: 59 nM
[11]; Table 9, relative to WT
  Replicon EC50 (Fold change) D168V: (13) fold

## COc1ccc2nc(C)c(O[C@@H]3C[C@H]4C(=O)N[C@]5(C(=O)NS(=O)(=O)C6(C)CC6)C[C@H]5/C=C\CCCCC[C@H](NC(=O)OC(C)(C)C)C(=O)N4C3)nc2c1 [Compound 19b, tert-Butyl ((2R,6S,13aS,14aR,16aS,Z)-2-((7-methoxy-3-methylquinoxalin-2-yl)oxy)-14a-(((1-methylcyclopropyl)sulfonyl)carbamoyl)-5,16-dioxo-1,2,3,5,6,7,8,9,10,11,13a,14,14a,15,16,16a-hexadecahydrocyclopropa[e]pyrrolo[1,2-a][1,4]diazacyclopentadecin-6-yl)carbamate]
[1]; Huh-7, 96 h, Table 2, Huh7 cells, luciferase 96 h
  EC50: 0.3 nM
[1]; Huh-7, Table 4
  EC50: 0.3 nM
[12]; Table 1
  Ki: 52 nM
[12]; Table 3
  Ki: 52 ± 2.4 nM
[13]; Table 1
  Ki: 3.6 nM
[13]; Table 3
  Ki: 3.6 nM
[14]
  Ki: 52 nM
[3]; Table 3, Ki D168A relative to GT1a WT
  Ki (Fold change) GT1a D168A NS3/4A Protease: (14) fold
[3]
  Ki (Fold Change) D168A: (14) fold
[15]
  Ki: 3.6 nM
[5]; Huh-7, 96 h, read-out: Replicon EC50 (nM) R155K, Table 2, Huh7 cells, luciferase 96 h
  EC50: 0.8 nM
[5]; Huh-7, read-out: Replicon EC50 (nM) R155K, Table 4
  EC50: 0.8 nM
[5]; [17]
  Replicon EC50 (Fold change) R155K: (3) fold
[6]; Huh-7, 96 h, read-out: Replicon EC50 (nM) D168A, Table 2, Huh7 cells, luciferase 96 h
  EC50: 2.37 nM
[6]; Huh-7, read-out: Replicon EC50 (nM) D168A, Table 4
  EC50: 2.37 nM
[6]; [17]
  Replicon EC50 (Fold change) D168A: (8) fold
[7]; Huh-7, 96 h, read-out: Replicon EC50 (nM) A156T, Table 2, Huh7 cells, luciferase 96 h
  EC50: 1.57 nM
[7]; Huh-7, read-out: Replicon EC50 (nM) A156T, Table 4
  EC50: 1.57 nM
[7]; [17]
  Replicon EC50 (Fold change) A156T: (5) fold
GT3a NS3/4A protease
  Ki: 119 nM
GT3a NS3/4A protease; Table 3, Ki GT3a relative to GT1a WT
  Ki (Fold change) GT3a NS3/4A Protease: (33) fold
GT3a NS3/4A protease; read-out: Ki (nM) GT3a NS3/4A Protease, Table 3
  Ki: 119 ± 18 nM
[16]
  ring closure, isolated yield: 70%
[11]; Huh-7, 96 h, read-out: Replicon EC50 (nM) D168V, Table 2, Huh7 cells, luciferase 96 h
  EC50: 1.6 nM
[11]; Huh-7, read-out: Replicon EC50 (nM) D168V, Table 4
  EC50: 1.6 nM
[11]; [17]
  Replicon EC50 (Fold change) D168V: (5) fold

## CC[C@H](C)[C@H](NC(C)=O)C(=O)N[C@H]1CCCCC/C=C\[C@@H]2C[C@@]2(C(=O)NS(=O)(=O)C2(C)CC2)NC(=O)[C@@H]2C[C@@H](Oc3nc4cc(OC)ccc4nc3C)CN2C1=O [Compound P4-P5-6, (2R,6S,13aS,14aR,16aS,Z)-6-((2S,3S)-2-acetamido-3-methylpentanamido)-2-((7-methoxy-3-methylquinoxalin-2-yl)oxy)-N-((1-methylcyclopropyl)sulfonyl)-5,16-dioxo-1,2,3,6,7,8,9,10,11,13a,14,15,16,16a-tetradecahydrocyclopropa[e]pyrrolo[1,2-a][1,4]diazacyclopentadecine-14a(5H)-carboxamide]
[14]
  Ki: 81 ± 11 nM
[3]
  Ki (Fold Change) D168A: (11) fold
[15]
  Ki: 7.1 ± 0.24 nM

— patent publication US11472778B2, “Hepatitis C virus NS3/4A protease inhibitors” (priority 2017, dated 2022)
